In patent publication US20020123037A1, “Selection Procedure Using Prodrug/Enzyme System” (Cobra Therapeutics Limited, priority 1999, published 2002):
Values joined by “and” are separate entries in the source; they are usually repeats but may differ in a detail not shown here. Equal entries are not always repeated.

What was measured:
[1] = test system: mammalian DT diaphorases; settings: cited from earlier work
[2] = test system: colorectal, pancreatic and ovarian tumour cell lines; settings: retroviral transfer of nitroreductase expression cassette; McNeish et al., 1998; Green et al., 1996; cited from earlier work
[3] = test system: E.coli C600Hfl lysogens of λJG3J1 and λJG16C1; assay: Induction of phage release from 5:1 mixture of lysogens JG3J1 (control) and JG16C1 (ntr) by CB1954; type: cell-based; settings: for #### (Control phage in the section above) / No. cols / Phage particles / No. ntr phage (colonies containing λJG16C1 of colonies screened by PCR): 500 μM CB1954
Method: E.coli C600Hfl (obtained from Promega Cat No. D3131) were infected with λJG3J1 or λJG16C1 for 15min at 37 °C and spread onto kanamycin (30µg/ml) selective Lennox agar (LA) plates to select for lysogens. A single colony of each was picked, and the lysogenic bacteria were then grown aerobically at 37 °C to mid log phase in LB containing 0.1mM IPTG. Approximately 4.8 x 10^8 λJG3J1 lysogens and 9 x 10^7 λ JG16C1 lysogens (as estimated from the optical density; approximate 5:1 ratio without:with nitroreductase) were mixed in 5ml LB containing 0.1mM IPTG in the presence or absence of 500 µM CB1954 (provided by Cobra Therapeutics and diluted from a 50mM stock solution in 2:7 N-methyl pyrrolidinone:PEG300). The mixtures of bacterial lysogens were incubated at 37 °C with shaking and 50µl samples removed at intervals between 15 and 185 minutes after mixing.
Each sample was immediately mixed with 1ml LB and 100µl chloroform to kill any bacteria, briefly centrifuged to pellet debris, and the supernatant diluted 1 in 10 before using 10 µl to infect E. coli C600Hfl and plating onto LA containing kanamycin, to select for bacteria lysogenised by bacteriophage in the sample.
The number of colonies growing from the samples was counted the following day, and indicates the total number of bacteriophage present in the sample.
The polymerase chain reaction (PCR) was used to determine whether the bacteria in each colony contained λJG3J1 or λJG16C1. A number of individual colonies were picked at random from the most relevant plates and transferred to a 200µl PCR tube, lysed in a microwave for 2min and 35µl of PCR reaction mix [16mM (NH4)2SO4, 67mM Tris-Cl (pH 8.8 at 25 °C), 0.01% Tween-20 (Bioline), 0.2mM each dNTP, 1.5mM MgCl2, 1 U Biotaq (Bioline)] plus 0.25 µM primersJ
A tube containing reaction mix but no bacteria was used as a control to check for contamination of PCR reaction components. After 30 cycles (94 °C/5min; then 30x 94 °C/45s, 55 °C/45s, 72 °C/160s; then 72 °C/10min) the PCR products were analysed by gel electrophoresis to determine the product size. Lysogens containing λJG16C1 expressing ntr gave a 1.1kb product whereas λJG3J1 lysogens gave a 0.4kb product. All the colonies gave one or the other of these two bands but not both, and the negative control confirmed the absence of contamination in the PCR.

[4] = test system: nitroreductase-expressing tumours; settings: mice harbouring nitroreductase-expressing tumours; McNeish et al., 1998; cited from earlier work
[5] = biological target: wild type nitroreductase (Escherichia coli, UniProt P38489); settings: CB1954 as substrate, reference 9, cited from earlier work
Sequence of wild type nitroreductase (P38489 whole entry): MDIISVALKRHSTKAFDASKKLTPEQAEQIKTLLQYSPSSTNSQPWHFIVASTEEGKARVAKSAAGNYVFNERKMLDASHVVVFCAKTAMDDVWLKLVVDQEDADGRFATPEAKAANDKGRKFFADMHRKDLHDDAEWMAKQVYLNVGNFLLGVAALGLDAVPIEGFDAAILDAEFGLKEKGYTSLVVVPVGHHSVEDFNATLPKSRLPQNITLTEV

[6] = 15 min after mixing & induction
[7] = 30 min after mixing & induction
[8] = 45 min after mixing & induction
[9] = 60 min after mixing & induction
[10] = 75 min after mixing & induction
[11] = 90 min after mixing & induction
[12] = 125 min after mixing & induction
[13] = 155 min after mixing & induction
[14] = 185 min after mixing & induction

NC(=O)c1cc(N(CCCl)CCCl)c([N+](=O)[O-])cc1[N+](=O)[O-] [SN 23862]
activation by mammalian DT diaphorases [1]: not activated

NC(=O)c1cc(N2CC2)c([N+](=O)[O-])cc1[N+](=O)[O-] [CB1954, 5-[aziridin-1-yl]-2,4-dinitrobenzamide]
sensitisation of tumour cell lines to the prodrug [2]: can sensitise | #### (Control phage in the section above) ([3]; 15 min, no PCR typing): 0.6 | No. cols [3, 6]: 3 | Phage particles [3, 6]: 0.6 10^−6 per ml | #### (Control phage in the section above) ([3]; 30 min, no PCR typing): 1 | No. cols [3, 7]: 5 | Phage particles [3, 7]: 1 10^−6 per ml | #### (Control phage in the section above) ([3]; 45 min, no PCR typing): 2.2 | No. cols [3, 8]: 11 | Phage particles [3, 8]: 2.2 10^−6 per ml | #### (Control phage in the section above) ([3]; 60 min): 3.82 | No. ntr phage (colonies containing λJG16C1 of colonies screened by PCR) ([3]; 60 min): 1 of 11 | No. cols [3, 9]: 21 | Phage particles [3, 9]: 4.2 10^−6 per ml | #### (Control phage in the section above) ([3]; 75 min): 4.79 | No. ntr phage (colonies containing λJG16C1 of colonies screened by PCR) ([3]; 75 min): 6 of 19 | No. cols [3, 10]: 35 | Phage particles [3, 10]: 7 10^−6 per ml | #### (Control phage in the section above) ([3]; 90 min): 9.6 | No. ntr phage (colonies containing λJG16C1 of colonies screened by PCR) ([3]; 90 min): 18/30 and 18 of 30 | No. cols [3, 11]: 120 | Phage particles [3, 11]: 24 10^−6 per ml | #### (Control phage in the section above) ([3]; 125 min): 33.4 | No. ntr phage (colonies containing λJG16C1 of colonies screened by PCR) ([3]; 125 min): 11 of 23 | No. cols [3, 12]: 320 | Phage particles [3, 12]: 64 10^−6 per ml | #### (Control phage in the section above) ([3]; 155 min): 54.7 | No. ntr phage (colonies containing λJG16C1 of colonies screened by PCR) ([3]; 155 min): 6 of 25 | No. cols [3, 13]: 360 | Phage particles [3, 13]: 72 10^−6 per ml | #### (Control phage in the section above) ([3]; 185 min): 72 | No. ntr phage (colonies containing λJG16C1 of colonies screened by PCR) ([3]; 185 min): 0 of 10 | No. cols [3, 14]: 360 | Phage particles [3, 14]: 72 10^−6 per ml | enrichment of λJG16C1 ([3]; 90 minute time point, 60% versus 16% at mixing): ~ 4 fold | proportion of λJG16C1 among recovered bacteriophage (peak) ([3]; culture exposed to CB1954, at 90 minutes, λJG16C1 16% of the mixture at mixing): 60% | peak concentration of the λJG16C1 ([3]; culture exposed to CB1954, at 125 minutes): 3 x 10^7 per ml | concentration of total bacteriophages released into the medium ([3]; culture exposed to CB1954, at 155 minutes): 7.2 x 10^7 per ml | concentration of total bacteriophages released into the medium ([3]; culture exposed to CB1954, at early times): 6 x 10^5 per ml | colony number ([3]; culture exposed to CB1954, end of the timecourse): ~ 360 | colony number ([3]; culture exposed to CB1954, start of the timecourse): 3 | level of bacteriophage above background ([3]; first ~60 minutes of exposure to CB1954): no increase | survival of mice [4]: Significantly increased survival and apparent cures | turnover rate kcat [5]: 6 s⁻¹ | Km ([5]; read-out: Michaelis constant KM): 860 µM
